{"source": "patent US20050065127A1", "about": "“2-Alkylidene-19-nor-vitamin D derivatives for the treatment of osteosarcoma” (Pfizer Inc., priority 2003, published 2005)", "origin": "cited, not measured here", "tested_on": "serum calcium (bone calcium mobilization)", "conditions": "chronic mode, 7 days, rats; 20S compound at 130 pmol/day", "data": [{"smiles": "C=C1[C@H](O)CC(=C/C=C2\\CCC[C@]3(C)[C@@H]([C@H](C)CCCC(C)(C)O)CC[C@@H]23)C[C@H]1O", "note": "[2-Methylene-19-Nor-1,25-(OH)2D3, 1α,25-dihydroxy-2-methylene-19-nor-vitamin D3]", "values": [{"measurement": "Bone calcium mobilization activity (serum calcium) relative to 1,25-(OH)2D3", "value": "10-100 times"}]}]}
